What was measured:
Format in all cases: cell-based
[1] = test system: biofilm-associated S. aureus strain UAMS-1; experiment: in vitro catheter biofilm assay
Protocol: To determine this, in vitro biofilm assays were performed as described in Weiss et al., Antimicrob Agents Chemother, 53: 2475-2482 (2009). Briefly, 1 cm segments of 14-gauge fluorinated ethylene propylene Introcan Safety Catheters (B. Braun, Bethlehem, Pa.) were coated with human plasma and placed in individual wells of a 12-well microtiter plate containing 2 ml biofilm medium and S. aureus strain UAMS-1 at a final OD600 nm of 0.05. Following overnight incubation at 37° C. catheters were removed, rinsed in phosphate buffered saline (PBS), and transferred to fresh biofilm medium containing 0, 5, 10, or 20 times the S. aureus MIC for RNPA1000. Catheters exposed to each dose (n=3) were recovered daily over a period of 3 days, with the medium being replaced each day. After each recovery time point catheters were rinsed in PBS and adherent bacteria were enumerated by sonication and plating. Analysis of variance (ANOVA) of logarithmically-transformed bacterial count data was used to evaluate the effect of RNPA1000 exposure.

[2] = test system: S. aureus RN4220; experiment: microdilution MIC of RnpA over- and under-producing cells; conditions: Staphylococcus aureus, 2.5 μM CdCl2
Protocol: With the exception of RN4220-derivatives, in vitro activities of RNPA1000 against bacteria were determined by the broth microdilution method according to the Clinical and Laboratory Standards Institute (CLSI) guidelines using cation adjusted Mueller-Hinton broth or MH broth supplemented with 5% lysed horse blood (for testing Streptotococcus spp.). Microtiter plates containing serial dilutions of RNPA1000 (0, 4, 8, 16, 32, 64, and 128 μg/ml) were inoculated with 10^5 colony forming units (CFU)/ml and incubated for 18 hr at 37° C. […] The MIC value for each S. aureus strain was determined to be the median score of replicate measurements (n=5). Wells containing concentrations of RNPA1000≧MIC were plated for minimal bactericidal measurement. Where possible, experiments with VRSA strains were performed in a laminar flow hood to minimize potential for equipment contamination. For RN4220 cells containing plasmid vector (pCN51), RnpA overproducing plasmid (pRNPA-S) or RnpA underproducing plasmid (pRNPA-A.S.) in vitro antimicrobial activity of RNPA1000 was performed by the microdilution method as described above, except that cells were grown in Tryptic Soy Broth medium supplemented with 2.5 μM CdCl2 and 0, 1, 2, 4, 8, 16, 32, 64, or 128 μg/ml RNPA1000. Time-kill assays were also performed to monitor the antimicrobial properties of RNPA1000 for S. aureus strain UAMS-1 in the absence and presence of 0.25, 0.5, 2, and 4 times the strain's MIC for oxacillin (1 μg/ml), rifampicin (0.5 μg/ml), vancomycin (2 μg/ml), or daptomycin (1 μg/ml). […]
To assess whether the susceptibility of S. aureus to RNPA1000 was attributable to the inhibition of cellular RnpA, the mRNA turnover properties of S. aureus that were challenged with a sub-inhibitory concentration of RnpA-inhibitor (0.5× MIC) were directly measured. […] To more directly determine whether RNPA1000's antimicrobial effects are mediated through cellular inhibition of RnpA, the RNPA1000 susceptibility of S. aureus RnpA over- and under-producing cells was assessed. […]

[3] = test system: S. aureus cellular mRNA degradation; experiment: GeneChip mRNA turnover of RNPA1000 challenged cells; conditions: 0.5× MIC, 30 min treatment, versus mock treated cells
Protocol: For half life determinations, S. aureus strain UAMS-1, RN4220 (pCN51; plasmid containing CdCl2 inducible promoter), RN4220 (pRNPA; pCN51 capable of producing full length rnpA mRNA), or RN4220 (pRNPA-A.S.; pCN51 capable of producing rnpA antisense RNA) were grown to mid-exponential or stationary phase, transcription was arrested by the addition of rifampin (200 μg/ml), and aliquots were removed at 0-, 2.5-, 5-, 15- and 30-min post-transcriptional arrest for strain UAMS-1. To conserve reagents, aliquots were removed at 0 and 10 min post-transcriptional arrest for RN4220 derivatives. Plating ensured cultures had not developed rifampin resistance. Each strain and/or growth phase was assessed twice, except for RN4220 pRNPA-A.S. cells which were assessed four times. RNA was isolated from each aliquot, labeled, hybridized to an S. aureus GeneChip (Affymetrix; Santa Clara, Calif.), duplicates were averaged, and the mRNA half-lives of all mRNA species were determined, as previously described (see Anderson et al., J Bacteriol, 188: 6739-6756 (2006); Roberts et al., J Bacteriol, 188: 2593-2603 (2006)). […] Transcript synthesis was then arrested and the transcript titers of mRNA species were measured at 0- and 5-min post-transcriptional arrest (see Anderson et al., J Bacteriol, 188: 6739-6756 (2006); Roberts et al., J Bacteriol, 188: 2593-2603 (2006)). […]

With `Cc1cc(/C=C(/C#N)C(=O)Nc2cccc(Br)c2)c(C)n1-c1ccc(C(=O)O)cc1` [RNPA1000] the bacterial clearance ([1]; 5, 10 or 20× MIC, up to 3 days) was “never achieved”, the “decrease in bacterial burden” value ([1]; 5× MIC for 24 hr) was 3 log and the “maximal reduction in biofilm-associated bacteria” value ([1]; up to 20× MIC, up to 3 days) was 5 log. It also gave an MIC ([2]; RN4220, RN4220 RnpA overproducing cells) of 32 µg/mL, an MIC ([2]; RN4220, RN4220 RnpA underproducing cells (antisense)) of 8 µg/mL and an MIC ([2]; RN4220, RN4220 vector containing cells (pCN51)) of 32 µg/mL. The “mRNA degradation rate of S. aureus cells” value [3] was “reduced the mRNA degradation rate”.

— patent US9233095B2, “Small molecule RNase inhibitors and methods of use” (University of Rochester, priority 2011, dated 2016)
